One assay concerns foam cells. Briefly: triglyceride content in foam cells (Triglyceride Assay Kit). The assay is classed as cell-based, human. As to conditions: 10 µM, 48 h. The method, then:
THP-1 monocytes were plated out into 24-well plates (Nunc) at a density of 2 x 10^5 cells/well. After differentiation and treatment cells were lysed with 100 µL lysis buffer (PBS, 0.25 M NaCl, 1% Triton X-100). Total and free cholesterol were determined using the colorimetric enzymatic Amplex Red Cholesterol Assay Kit (Invitrogen). Triglycerides were quantified by Triglyceride Assay Kit (BioVision). For normalisation protein content was determined with Pierce 660 nm Protein Assay Reagent (Thermo Scientific).

For assay [1], the target named is T1, LXRβ ligand binding domain (LBD) (Homo sapiens, UniProt P55055).
T1 construct: expressed in transfected cells; host or cells: HEK-293
T1 sequence (P55055 154-460 limits assumed): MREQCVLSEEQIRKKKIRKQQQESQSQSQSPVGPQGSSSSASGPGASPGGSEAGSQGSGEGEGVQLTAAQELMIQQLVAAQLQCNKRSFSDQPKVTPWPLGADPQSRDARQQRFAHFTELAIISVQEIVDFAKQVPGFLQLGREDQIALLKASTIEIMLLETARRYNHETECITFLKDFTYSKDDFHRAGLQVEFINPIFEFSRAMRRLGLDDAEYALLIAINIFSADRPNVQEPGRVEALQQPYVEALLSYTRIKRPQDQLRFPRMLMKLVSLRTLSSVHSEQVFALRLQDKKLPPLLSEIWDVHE
Put plainly: dual luciferase reporter gene assay with LXRβ ligand binding domain in HEK-293 cells. The assay is classed as cell-based. The method, then:
(§1) Selection and amplification were performed in E-coli cells. Purification of the plasmids was performed with a plasmid purification kit (Qiagen). For transfection HEK-293 cells were plated in 96-well plates (TPP) at a density of 3.5 x 10^4 cells/well for 24 h. To investigate the ligand binding on LXRα ligand binding domain, 0.04 ng of renilla luciferase coding plasmide pGL4.75 (Promega), 0.04 ng of LXRα-LBD/GAL4-DBD plasmide and 80 ng of firefly luciferase coding plasmide pGL4.31 (Promega) were used in a total volume of 200 µL for each well. In LXRβ binding assay 40 ng of LXRβ-LBD/GAL4-DBD plasmide were applied in each transfection mix. Transfection was carried out for 4 h with Lipofectamine 2000 Transfection Reagent (Invitrogen) in Opti-MEM medium (Invitrogen). Ligand treatment was performed at different concentrations for 24 h. For lysis and detection dual-luciferase reporter gene assay system (Promega) and POLARstar Omega (BMG LABTECH) were used.

In assay [2] the target is T2, LXRα ligand binding domain (LBD) (Homo sapiens, UniProt Q13133).
T2 construct: expressed in transfected cells; host or cells: HEK-293
T2 sequence (Q13133 164-447): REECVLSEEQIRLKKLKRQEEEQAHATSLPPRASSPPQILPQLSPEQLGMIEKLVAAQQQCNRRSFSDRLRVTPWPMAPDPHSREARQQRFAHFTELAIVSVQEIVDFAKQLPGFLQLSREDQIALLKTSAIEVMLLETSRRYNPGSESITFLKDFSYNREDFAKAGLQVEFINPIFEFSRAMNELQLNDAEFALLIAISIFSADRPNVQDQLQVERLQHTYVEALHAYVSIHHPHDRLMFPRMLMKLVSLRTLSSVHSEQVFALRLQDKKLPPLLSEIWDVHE
Briefly: dual luciferase reporter gene assay with LXRα ligand binding domain in HEK-293 cells. The assay is classed as cell-based. As to the method: as §1, with “The ligand binding domain (LBD) of LXRα (amino acids 164 to 447) or LXRβ (amino acids 154 to 461) was cloned into pBIND [Renilla/Amp] vector (Promega). Selection” for “Selection”
On the technique in general: In a reporter assay the amount or activity of a reporter protein is the signal.

Molecules are shown by their SMILES.

The term EC50 denotes the concentration needed to bring the measured effect to its halfway point. High values mean weaker potency, low ones greater potency. In the case of `C(=C\c1ccc(OCC2CO2)cc1)/c1ccccc1` (centres unmarked) [compound 1, 2-[[4-[(E)-styryl]phenoxy]-methyl]oxirane], in the assay with foam cells, the triglyceride levels result is listed as “triglyceride levels were not increased”. Also, the “Transcriptional activation of LXRβ” value in assay [1] is listed as “does not activate the LXRβ subtype”. Moreover, a half-maximal effect in assay [2] (+DMSO, LXRα reporter gene activation) (EC50) was put at 35 nM. Further, the Efficacy in assay [2] (+DMSO, reporter gene transcription vs. T09) is 6%. The “specificity LXRα vs. LXRβ” value in assay [2] (reporter-gene assays with LXRα and LXRβ LBD) is given as “characteristic specificity for LXRα”.

The values are drawn from patent publication EP2759295A1, “Foam cell specific Liver X Receptor (LXR) alpha agonist, SIRT1 inhibitors as well as p300 inhibitors as pharmaceutically active agents” (Max-Planck-Gesellschaft zur Förderung der Wissenschaften …, priority 2013, dated 2014).
